# “Also recorded” adds a separate entry of the source.
# Tested on: patients undergoing photorefractive keratectomy (PRK) surgery
# Experiment: PRK study: adverse events
# Format: in vivo, human
# Experimental: The study was a proof of concept, double-masked, randomized, vehicle-controlled study of compound I administered as eye drops in addition to standard of care treatment in patients after PRK surgery. PRK surgery was performed as an outpatient procedure under topical anesthesia with removal of the corneal epithelium to expose the stroma for the laser ablation. Compound I dosing was as single eye drop of 2.5% (25 mg/ml, 0.925 mg/drop), administered four times daily (every six hours) in one eye from immediate post-op (time 0) to last dose at 72 hours.
# Safety assessments consisted of collecting all AEs, SAEs, with their severity and relationship to study drug. Only signs and symptoms greater than the listed ranges of either severity or duration were reported as AEs.
# Adverse events and serious adverse events included an assessment of both systemic and ocular assessments. Systemic safety assessments included regular assessments of height and weight, vital signs, reporting medication errors including misuse/abuse, pregnancy reporting and early phase safety monitoring. The misuse/abuse, pregnancy reporting and early phase safety monitoring were not assessed for the study. Ocular safety assessments included the following: • Best-corrected visual acuity (BCVA) and uncorrected visual acuity (UCVA): Was measured at each visit using an ETDRS visual acuity chart at 4 meters (13 feet) or 1 meter (for patients that cannot read the 4 meter chart). The BCVA scoring was done based on the number of correctly read letters plus 30. If visual acuity was so poor that the patient could not read any of the largest letters at 1 meter, count fingers and hand movement vision and light perception was tested. • Intraocular Pressure (TOP): IOP measurements were conducted with applanation tonometry or Tonopen. • Dilated fundus exam: The dilated fundus examination included ophthalmoscopic assessments of the vitreous, retina/macula/choroid, and optic nerve. Evaluations for retinal tear/detachment, retinal hemorrhage, vitreous hemorrhage density, vitreous haze grading and abnormal findings were done and scored according to grading criteria. • Ocular hyperemia: Conjunctival redness of the bulbar conjunctiva in each eye at the slit lamp according to the McMonnies redness scale was graded. […] By adjusting the calibrated slit beam width and height, the maximum horizontal (wound width) and vertical dimensions (wound height) of the surgical epithelial wound was estimated. The evaluation was performed until wound closure and report of wound size as 0 horizontal and 0 vertical dimensions. • Slit-lamp biomicroscopy: Ocular signs (eyelids/conjunctiva, cornea, lens, and iris/anterior chamber) was assessed in both eyes by slit lamp biomicroscopy according to the grading criteria. • Blink rate: A blink was defined as a bilateral paroxysmal closure of the eyelids (duration<1 second) in the absence of a provoking external stimulus. Each blink assessment lasted for 2 min (or as close to 2 minutes as possible with minimum time 1 minute) and the obtained blink rate was averaged to calculate blink rate in blinks/min. • Tear production (Schirmer's test without anesthesia): The test was performed without anesthetic in both eyes simultaneously. Tear secretion was measured in millimeters of the length of strip wetted by tears. […] The strip was wetted with 1 drop of sterile saline and flicked to remove excess saline. The patient blinked several times to ensure dispersion of the dye throughout the tear film prior to grading on a scale of 0-3 (0=Normal, No staining; 1=Mild, Superficial stippling micropunctate staining; 2=Moderate, Macropunctate staining with some coalescent areas and 3=Severe, Numerous coalescent macropunctate areas and/or patches) for each of 5 zones (central plus 4 quadrants).
smiles,measurement,setting,value
"CC(C)c1nc2cc(O)ccc2c(=O)n1-c1ccc(C#N)cc1 [Compound I, 4-(7-hydroxy-2-isopropyl-4-oxo-4H-quinazolin-3-yl)-benzonitrile]",Non-ocular AE Arthralgia: Procedure related,Compound I 2.5%,no
same,Non-ocular AE Arthralgia: Severity,Compound I 2.5%,mild
same,Non-ocular AE Headache: Procedure related,Compound I 2.5%,no
same,Non-ocular AE Headache: Severity,Compound I 2.5%,mild
same,Non-ocular AE Nasopharyngitis: Procedure related,Compound I 2.5%,no
same,Non-ocular AE Nasopharyngitis: Severity,Compound I 2.5%,"mild, mild"
same,Non-ocular AE Oropharyngeal Pain: Procedure related,Compound I 2.5%,no
same,Non-ocular AE Oropharyngeal Pain: Severity,Compound I 2.5%,mild
same,Non-ocular AE Pyrexia: Procedure related,Compound I 2.5%,no
same,Non-ocular AE Pyrexia: Severity,Compound I 2.5%,moderate
same,Non-ocular AE Sinus Congestion: Procedure related,Compound I 2.5%,no
same,Non-ocular AE Sinus Congestion: Severity,Compound I 2.5%,moderate
same,Non-ocular AE Sinusitis: Procedure related,Compound I 2.5%,no
same,Non-ocular AE Sinusitis: Severity,Compound I 2.5%,moderate
same,Non-ocular AE Vomiting: Procedure related,Compound I 2.5%,no
same,Non-ocular AE Vomiting: Severity,Compound I 2.5%,moderate
same,Ocular AE Corneal Opacity: Procedure related,Compound I 2.5%,yes
same,Ocular AE Corneal Opacity: Severity,Compound I 2.5%,mild
same,Ocular AE Posterior Vitreous Detachment: Procedure related,Compound I 2.5%,no
same,Ocular AE Posterior Vitreous Detachment: Severity,Compound I 2.5%,mild
same,Ocular AE Punctate Keratitis: Procedure related,Compound I 2.5%,yes
same,Ocular AE Punctate Keratitis: Severity,Compound I 2.5%,mild
same,Non-ocular AE Arthralgia: patients,"Compound I 2.5%, N = 40",1 (2.5) n (%)
same,Non-ocular AE Headache: patients,"Compound I 2.5%, N = 40",1 (2.5) n (%)
same,Non-ocular AE Nasopharyngitis: patients,"Compound I 2.5%, N = 40",2 (5.0) n (%)
same,Non-ocular AE Oropharyngeal Pain: patients,"Compound I 2.5%, N = 40",1 (2.5) n (%)
same,Non-ocular AE Pyrexia: patients,"Compound I 2.5%, N = 40",1 (2.5) n (%)
same,Non-ocular AE Sinus Congestion: patients,"Compound I 2.5%, N = 40",1 (2.5) n (%)
same,Non-ocular AE Sinusitis: patients,"Compound I 2.5%, N = 40",1 (2.5) n (%)
same,Non-ocular AE Tinnitus: patients,"Compound I 2.5%, N = 40",0 n (%)
same,Non-ocular AE Vomiting: patients,"Compound I 2.5%, N = 40",1 (2.5) n (%)
same,Number of AEs,"Compound I 2.5%, N = 40",12
same,Number of drug-related AEs,"Compound I 2.5%, N = 40",0
same,Number of mild severity AEs,"Compound I 2.5%, N = 40",8
same,Number of moderate severity AEs,"Compound I 2.5%, N = 40",4
same,Number of non-ocular AEs,"Compound I 2.5%, N = 40",9
same,Number of ocular AEs,"Compound I 2.5%, N = 40",3
same,Number of procedure-related AEs,"Compound I 2.5%, N = 40",2
same,Number of severe AEs,"Compound I 2.5%, N = 40",0
same,Ocular AE Corneal Infiltrate: patients,"Compound I 2.5%, N = 40",0 n (%)
same,Ocular AE Corneal Opacity: patients,"Compound I 2.5%, N = 40",1 (2.5) n (%)
same,Ocular AE Posterior Vitreous Detachment: patients,"Compound I 2.5%, N = 40",1 (2.5) n (%)
same,Ocular AE Punctate Keratitis: patients,"Compound I 2.5%, N = 40",1 (2.5) n (%)
same,Patients with at least one AE,"Compound I 2.5%, N = 40",8 (20) n (%)
same,Patients with at least one non-ocular AE,"Compound I 2.5%, N = 40",6 (15) n (%)
same,Patients with at least one ocular AE,"Compound I 2.5%, N = 40",3 (7.5) n (%)
same,Differences in safety between compound I and Vehicle,PRK study,no observed clinically meaningful differences in safety
same,"Deaths, SAEs, discontinuations due to AEs","PRK study, 2.5% four times daily for 72 hours","no deaths or SAEs or discontinuation of the drug or discontinuation from the study due to AEs; also recorded: no deaths, or serious or severe AEs, treatment discontinuations or study discontinuations"
